Measured values from PubChem BioAssay (NCI).
Several values for one entry are separate records, joined by “and”; a condition that tells them apart may be missing. Identical values can stand only once.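 Compound exposure: 48 hours, 5 concentrations, 96-well plates. GI50 is the concentration that inhibits growth by half. The concentration for full growth arrest is given as TGI.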

Legend:
Experiment in all cases: NCI tumour cell line growth inhibition, 48 h
[1] = test system: UACC-62 melanoma
[2] = test system: U251 CNS
[3] = test system: EKVX NSCLC
[4] = test system: 786-0 renal
[5] = test system: HCC-2998 colon
[6] = test system: SK-OV-3 ovarian
[7] = test system: HL-60(TB) leukemia
[8] = test system: SN12C renal
[9] = test system: OVCAR-4 ovarian
[10] = test system: PC-3 prostate

Row | Compound | GI50 [1] | TGI [1] | GI50 [2] | TGI [2] | GI50 [3] | TGI [3] | GI50 [4] | TGI [4] | GI50 [5] | TGI [5] | GI50 [6] | TGI [6] | GI50 [7] | TGI [7] | GI50 [8] | TGI [8] | GI50 [9] | TGI [9] | GI50 [10] | TGI [10]
1 | O=C1CC(c2ccc3c(c2)OCO3)Nc2ccccc21 (centres undefined) | 11.7 µM | 30.3 µM | 8.46 µM | 24.7 µM | 11.8 µM | 46.4 µM | 8.11 µM | 40.2 µM | 15.8 µM | 30.4 µM | 16.8 µM | > 100 µM | 3.16 µM | > 100 µM | 6.28 µM | 23 µM | 12.2 µM | 56.7 µM | 3.83 µM | 36.6 µM
2 | O=C1C=C(Cl)C(=O)C(c2ccc(Cl)cc2)=C1 | – | 42.4 µM | – | 30 µM | – | 30.2 µM | – | 38.1 µM | – | 34.2 µM | – | > 100 µM | – | 42.8 µM | – | 44.4 µM | – | 51.6 µM | – | 29.3 µM
3 | O=C1C(Cl)=C(Nc2cccc(Cl)c2)C(=O)N1Cc1ccc(Cl)cc1Cl | 0.446 µM | 4.83 µM | – | 13.7 µM | 9.31 µM | 34.4 µM | – | 4.93 µM | 4.23 µM | 18.8 µM | 3.57 µM | 20.6 µM | 7.66 µM | > 100 µM | 0.252 µM | 12.8 µM | 0.508 µM | 7.41 µM | 2.94 µM | > 50.3 µM
4 | CCOC(=O)[C@]1(OC(C)=O)C[C@H](OC(C)=O)[C@@H](C(F)COP(=O)(OCc2ccccc2)OCc2ccccc2)O1 (some centres undefined) | 16.9 µM and > 100 µM | 33.8 µM and > 100 µM | 35.9 µM and > 100 µM | > 100 µM | 26.3 µM and > 100 µM | 71.3 µM and > 100 µM | 39 µM and > 100 µM | > 100 µM | – | > 100 µM | – | > 100 µM | 31.9 µM and > 100 µM | 86.6 µM and > 100 µM | – | > 100 µM | 18 µM and > 100 µM | 39 µM and > 100 µM | – | 88 µM and > 100 µM
5 | Cc1ccc(C(=O)/C(=C/c2ccc([N+](=O)[O-])cc2)SCc2ccc(Cl)cc2)cc1 | 1.34 µM | 3.41 µM | 1.11 µM | 2.4 µM | 3.04 µM | 13.9 µM | 1.66 µM | 3.58 µM | 1.67 µM | 3.37 µM | 27.4 µM | > 100 µM | 2.35 µM | 7.29 µM | 1.83 µM | 4.68 µM | 1.87 µM | 6.37 µM | 1.12 µM | 3.49 µM
6 | COc1cc(/C=N/NC(=O)c2ccc(C(F)(F)F)nc2Nc2ccc(Cl)cc2C)ccc1O | 1.88 µM | 5.01 µM | 2.09 µM | 10.6 µM | 1.06 µM | 12.4 µM | 2.64 µM | 9.93 µM | 1.98 µM | 8.45 µM | 3.79 µM | 15.6 µM | 1.7 µM | 4.41 µM | 2.97 µM | 16.5 µM | 1.54 µM | 17 µM | 1.89 µM | 9.87 µM
7 | O=C(O)CSc1ccc([N+](=O)[O-])cc1[N+](=O)[O-] | – | > 100 µM | – | > 100 µM | – | > 100 µM | – | > 100 µM | – | > 100 µM | – | > 100 µM | – | > 100 µM | – | > 100 µM | – | > 100 µM | – | > 100 µM
8 | COC1=CC(c2ccc[nH]2)=N/C1=C\c1[nH]c(C)c(C(=O)OC(C)C)c1C | 0.025 µM | 0.0578 µM | 0.0355 µM | 0.82 µM | 0.0799 µM | 2.31 µM | 0.0476 µM | 1.03 µM | 0.0485 µM | 1.36 µM | 0.831 µM | 4.65 µM | 0.0551 µM | 2.89 µM | 0.068 µM | 2.01 µM | 0.0531 µM | 4.62 µM | 0.0633 µM | 4.7 µM
9 | O=CN/C=C/c1cc(O)ccc1O | – | 27.3 µM | – | > 66 µM | – | 35.6 µM | – | 27.1 µM | – | > 100 µM | – | > 90.5 µM | – | 13.2 µM | – | 31.3 µM | – | 32.2 µM | – | > 100 µM
10 | Cc1cc(I)cc(CN(C)CCCCN2CCCCC2)c1O | 2.62 µM | 6.98 µM | 13.7 µM | 31.2 µM | 20.9 µM | 87.3 µM | 12.6 µM | 25.4 µM | 16 µM | 30.1 µM | 18.3 µM | 42.4 µM | 10.9 µM | 26.3 µM | 35.5 µM | > 100 µM | 28.3 µM | > 100 µM | 15 µM | 32 µM
11 | COc1cc(-c2nn(-c3ccc(NC(=O)c4ccc(Cl)c(C(F)(F)F)c4)cc3)cc2-c2ccncc2)ccc1Cl | 2.2 µM | 5.44 µM | 2.08 µM | 56.7 µM | 2.18 µM | > 65.1 µM | 1.2 µM | 2.86 µM | 3.22 µM | > 100 µM | > 27.1 µM | > 100 µM | 3.62 µM | > 57.3 µM | 4.64 µM | > 100 µM | 5.05 µM | > 100 µM | 3.04 µM | > 100 µM
